Where a SMILES comes first, the peptide text is derived from it. [ ]: non-standard residue; d: D form. The star is where a group is joined. Cbz = O=C(OCc1ccccc1)*; CH2Cl = ClC*; CH2F = FC*
Columns and labels:
[1] = SW1271 cell viability assay; format: cell-based; conditions: human, SW1271 small cell lung cancer cells (luciferase-constructed), SW1271 cells
Description: UCHL1 is a key promoter of cell invasion and metastasis in small cell lung cancer but not necessarily required for cell viability or proliferation. Thus, we chose to assess the efficacy of targeting UCHL1 using the SW1271 small cell lung cancer cell line. […] The Ub-ABP assay was used to confirm on target engagement of UCHL1 within these cells.
Luciferase-constructed cancer cells were seeded in 96-well plates at 10,000 cells/well with the compounds at the indicated concentrations. DMSO was used as vehicle control. Luminescence readings were acquired after adding 1% D-luciferin (GoldBio, St. Louis, MO, USA) after 24 h. Cell viability was determined by the ratio of luminescence reading compared to the one at 0 h, and normalized to vehicle control.

[2] = target: T1, UCHL1 (Homo sapiens, UniProt P09936); assay: Fluorescence-based Ub-Rho deubiquitinase activity assay; format: biochemical; set-up: made in house; conditions: for IC50: 3 h of preincubation with UCHL1, technical triplicate, averages, read-out: IC50; for in vitro activity against UCHL1: up to 200 µM
T1 sequence (P09936 1-223): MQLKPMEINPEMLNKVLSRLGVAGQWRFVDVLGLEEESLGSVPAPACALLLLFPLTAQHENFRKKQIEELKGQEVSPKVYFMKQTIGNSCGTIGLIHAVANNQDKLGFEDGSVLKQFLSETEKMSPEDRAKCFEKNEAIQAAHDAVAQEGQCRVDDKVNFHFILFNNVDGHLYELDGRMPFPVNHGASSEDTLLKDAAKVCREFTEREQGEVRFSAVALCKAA
Description: Thus, a 3-h preincubation period was selected for the structure-activity relationship (SAR) comparison of all analogs to ensure full reaction time and for consistent comparison of activity against UCHL1 within the scaffold. […] A 10 mM stock solution was made for each inhibitor in DMSO, then a dilution of 600 µM in reaction buffer was made followed eight by 1:1 serial dilutions. […] These were allowed to incubate, while sealed, for the 3 h at room temperature. […] The % activity was plotted as a function of inhibitor concentration and the data was fitted with non-linear regression analysis to calculate the IC50 values. Errors are reported as the 95% confidence interval calculated from experiments collected in technical triplicate.

[3] = target: T1, UCHL1; assay: as above; format: biochemical; set-up: made in house; conditions: even after 6 h of incubation with the enzyme
[4] = target: T1, UCHL1; assay: Time-dependent inhibitor analysis (kinact/KI); format: biochemical; set-up: made in house
Description: Irreversible covalent inhibitors may be further characterized by determining the reversible binding constant (KI) as well as the rate of the covalent bond formation under saturating conditions (kinact). By determining the IC50 over the course of various timepoints, the pseudo first-order rate constant (kobs) could be calculated. […] The % activity of each inhibitor concentration was the plotted vs. time of pre-incubation and the slope of this plot is the pseudo first-order rate constant (kobs) for inhibition at each concentration. The kobs was plotted as a function of inhibitor concentration and then fit to the equation Y = kinactX/(KI + X) to calculate kinact, KI and kinact/KI as described by Resnick et al..

[5] = system: SW1271 cells; assay: Click reaction and in-gel fluorescence of treated SW1271 cells; format: cell-based; conditions: 100 µM, 4 h
Description: Leveraging the alkyne handle, a click reaction was performed with an azide containing sulfo-cyanine5 fluorophore (Cy5) to visualize proteins within the cells that were conjugated to either the fluoromethylketone 34 or the chloromethylketone 37. Cells were pretreated with either analog then harvested and washed to removed unreacted inhibitor. The cells were then lysed and the click reaction was performed on lysates. […] Further evaluation using proteomic profiling is warranted to gain a quantitative understanding on the potential for non-specificity at off-target cysteines.
Cells were treated with 100 µM inhibitor or DMSO for 4 h before being washed, scraped, and lysed in 200 µL of lysis buffer (1× PBS, 1% v/v Triton X-100, 0.1% w/v SDS, 1X HALT) for 30 min on ice with vigorous vortexing every 10 min. Samples were then pelleted at 17,000× g for 10 min before collecting the supernatant and measuring concentration using BCA. Samples were normalized to 2 mg/mL and stored at −80 °C overnight. The following day, samples were thawed. While thawing, a click cocktail was prepared (for each sample, the cocktail consists of: 3 µL of 1.7 mM THPTA in 1:4 tBuOH/DMSO, 1 µL of 50 mM CuSO4 in water, 1 µL of 1.25 mM Cy5-N3 in DMSO, and 1 µL of 50 mM TCEP in water freshly prepared). […] The samples were then analyzed by SDS-PAGE and imaged on a Licor Odyssey and subsequently Coomassie stained.

[6] = system: KMS-12 cell lines; set-up: method as in PMID 31449350; conditions: cells do not express UCHL1; cited from earlier work
[7] = target: T1, UCHL1; set-up: made in house; conditions: previous studies; cited from earlier work
[8] = IC50 comparison, 3 h preincubation

Structure (SMILES) | IC50 [2] [µM] | other results
COC(=O)CC[C@H](NC(=O)[C@H](C)NC(=O)[C@@H](NC(=O)OCc1ccccc1)C(C)C)C(=O)CCl [Cpd 14] (Cbz-Val-Ala-Glu(OMe)-CH2Cl) | > 200 | CC50 at 24 h [1]: 0.156 µM; in vitro activity against UCHL1 [2]: complete loss of in vitro activity
CC(C)[C@H](NC(=O)OCc1ccccc1)C(=O)NCC(=O)N[C@@H](CCC(=O)O)C(=O)CF [Cpd 16] (Cbz-Val-Gly-Glu-CH2F) | > 200 | in vitro activity against UCHL1 [3]: complete abrogation of activity
COC(=O)CC[C@H](NC(=O)[C@H](C)NC(=O)[C@H](NC(=O)OCc1ccccc1)C(C)C)C(=O)CF [Cpd 17] (Cbz-[dV]-Ala-Glu(OMe)-CH2F) | > 200 | in vitro activity against UCHL1 [2]: complete loss of activity
COC(=O)CC[C@H](NC(=O)[C@H](C)NC(=O)[C@@H](NC(=O)OCc1ccccc1)[C@@H](C)O)C(=O)CF [Cpd 23] (Cbz-Thr-Ala-Glu(OMe)-CH2F) | 100 | 
COC(=O)CC[C@H](NC(=O)[C@H](C)NC(=O)[C@H](CC(=O)O)NC(=O)OCc1ccccc1)C(=O)CF [Cpd 25] (Cbz-Asp-Ala-Glu(OMe)-CH2F) | > 200 | 
COC(=O)CC[C@H](NC(=O)[C@@H](C)NC(=O)[C@@H](NC(=O)OCc1ccccc1)C(C)C)C(=O)CF [Cpd 26] (Cbz-Val-[dA]-Glu(OMe)-CH2F) | > 200 | in vitro activity against UCHL1 [2]: loss of activity
COC(=O)CC[C@H](NC(=O)[C@H](CC(C)C)NC(=O)[C@@H](NC(=O)OCc1ccccc1)C(C)C)C(=O)CF [Cpd 27] (Cbz-Val-Leu-Glu(OMe)-CH2F) | > 200 | 
COC(=O)CC[C@H](NC(=O)[C@H](Cc1ccccc1)NC(=O)[C@@H](NC(=O)OCc1ccccc1)C(C)C)C(=O)CF [Cpd 28] (Cbz-Val-Phe-Glu(OMe)-CH2F) | > 200 | 
COC(=O)CC[C@H](NC(=O)[C@H](CO)NC(=O)[C@@H](NC(=O)OCc1ccccc1)C(C)C)C(=O)CF [Cpd 29] (Cbz-Val-Ser-Glu(OMe)-CH2F) | 100 | 
COC(=O)CC[C@H](NC(=O)[C@H](CC(N)=O)NC(=O)[C@@H](NC(=O)OCc1ccccc1)C(C)C)C(=O)CF [Cpd 31] (Cbz-Val-Asn-Glu(OMe)-CH2F) | > 200 | 
COC(=O)CC[C@H](NC(=O)[C@H](CC(=O)O)NC(=O)[C@@H](NC(=O)OCc1ccccc1)C(C)C)C(=O)CF [Cpd 32] (Cbz-Val-Asp-Glu(OMe)-CH2F) | > 200 | 
C#Cc1ccc(COC(=O)N[C@H](C(=O)NCC(=O)N[C@@H](CCC(=O)OC)C(=O)CF)C(C)C)cc1 [Cpd 35] | 62 | fold more active than non-alkyne analog 15 [2, 8]: about 1.5 fold
C#Cc1ccc(COC(=O)N[C@@H](Cc2ccccc2)C(=O)N[C@@H](C)C(=O)N[C@@H](CCC(=O)OC)C(=O)CF)cc1 [Cpd 36] | 11 | kinact/KI ([4]; Table 3 and text, read-out: kinact/KI): 208 M⁻¹ s⁻¹; kinact ([4]; read-out: kinact): 0.0157 s⁻¹; Ki ([4]; reversible binding constant of covalent inhibition, read-out: KI): 75.3 µM; fold more active than 1 versus UCHL1 [2, 8]: 2 fold
N#CN1CCC[C@H]1C(=O)N1CCc2c(-c3cn[nH]c3C(F)(F)F)cccc21 [MT-19] |  | anti-proliferative properties in KMS-12 cell lines [6]: anti-proliferative properties
COC(=O)C[C@H](NC(=O)[C@H](C)NC(=O)[C@@H](NC(=O)OCc1ccccc1)C(C)C)C(=O)CF [VADFMK] (Cbz-Val-Ala-Asp(OMe)-CH2F) |  | activity against UCHL1 [7]: inactive

Continued, in another order:

IC50 [2] [µM] | Structure (SMILES) | other results
95 | COC(=O)CC[C@H](NC(=O)CNC(=O)[C@@H](NC(=O)OCc1ccccc1)C(C)C)C(=O)CF [Cpd 15] (Cbz-Val-Gly-Glu(OMe)-CH2F) | 
> 200 | COC(=O)CC[C@H](NC(=O)[C@H](C)NC(=O)CNC(=O)OCc1ccccc1)C(=O)CF [Cpd 18] (Cbz-Gly-Ala-Glu(OMe)-CH2F) | in vitro activity against UCHL1 [2]: complete abrogation of activity
76 | COC(=O)CC[C@H](NC(=O)[C@H](C)NC(=O)[C@H](C)NC(=O)OCc1ccccc1)C(=O)CF [Cpd 19] (Cbz-Ala-Ala-Glu(OMe)-CH2F) | fold less effective than parent compound 1 [2, 8]: 3 fold
23 | COC(=O)CC[C@H](NC(=O)[C@H](C)NC(=O)[C@H](CC(C)C)NC(=O)OCc1ccccc1)C(=O)CF [Cpd 20] (Cbz-Leu-Ala-Glu(OMe)-CH2F) | 
13 | COC(=O)CC[C@H](NC(=O)[C@H](C)NC(=O)[C@H](Cc1ccccc1)NC(=O)OCc1ccccc1)C(=O)CF [Cpd 21, Cbz-L-Phe-L-Ala-L-Glu(OMe)-fluoromethylketone] (Cbz-Phe-Ala-Glu(OMe)-CH2F) | 
185 | COC(=O)CC[C@H](NC(=O)[C@H](C)NC(=O)[C@H](CO)NC(=O)OCc1ccccc1)C(=O)CF [Cpd 22] (Cbz-Ser-Ala-Glu(OMe)-CH2F) | 
119 | COC(=O)CC[C@H](NC(=O)[C@H](C)NC(=O)[C@H](CC(N)=O)NC(=O)OCc1ccccc1)C(=O)CF [Cpd 24] (Cbz-Asn-Ala-Glu(OMe)-CH2F) | 
> 200 | COC(=O)CC[C@H](NC(=O)[C@@H](NC(=O)[C@@H](NC(=O)OCc1ccccc1)C(C)C)[C@@H](C)O)C(=O)CF [Cpd 30] (Cbz-Val-Thr-Glu(OMe)-CH2F) | 
> 200 | COC(=O)CC[C@H](NC(=O)[C@H](CCC(=O)O)NC(=O)[C@@H](NC(=O)OCc1ccccc1)C(C)C)C(=O)CF [Cpd 33] (Cbz-Val-Glu-Glu(OMe)-CH2F) | 
> 200 | C#Cc1ccc(COC(=O)N[C@H](C(=O)N[C@@H](C)C(=O)N[C@@H](CCC(=O)OC)C(=O)CCl)C(C)C)cc1 [Cpd 37] | proteins labelled in SW1271 cells (Cy5 click, in-gel fluorescence) [5]: non-specifically label multiple proteins within the cell; CC50 at 24 h [1]: 0.176 µM; in vitro activity against UCHL1 [2]: inactive
